From ChEMBL document CHEMBL1697821, “Development of a phospholipidosis database and predictive quantitative structure-activity relationship (QSAR) models” (Toxicol Mech Methods, 2008) come the findings set out here.

This data set deals with Phospholipidosis. Nature of the data set: Literature-mined public compounds from Kruhlak et al phospholipidosis modelling dataset.

On to `FC(F)(F)c1ccc(-c2ccc(OCCN3CCCC3)cc2)cc1` [BOXIDINE], for which the Phospholipidosis entry was “Positive: strong inducer confirmed by electron microscopy”. Next, `CC[N+](C)(C)Cc1ccccc1Br.Cc1ccc(S(=O)(=O)[O-])cc1` [BRETYLIUM TOSYLATE]: “Negative: based on the absence of positive reported data from WMDD”; `CN(Cc1cc(Br)cc(Br)c1N)C1CCCCC1` [BROMHEXINE]: “Positive: weak inducer based on presence of foamy macrophages and cytoplasmic vacuolations”; `O=S(=O)(O)c1ccc(/N=N/c2cc(CO)c(O)c(/N=N/c3ccc(S(=O)(=O)O)c4ccccc34)c2O)c2ccccc12` [BROWN HT]: “Negative: based on the absence of positive reported data from WMDD”. Next, `CC(C)(C)c1ccc(CN2CCN(C(c3ccccc3)c3ccc(Cl)cc3)CC2)cc1` (centres undefined) [BUCLIZINE]: “Negative: based on the absence of positive reported data from WMDD”; `O=C(O)CCC(=O)c1ccc(C2CCCCC2)c(Cl)c1` [BUCLOXIC ACID]: “Negative: based on the absence of positive reported data from WMDD”. Regarding `CC(C)(C)NCC(O)COc1ccccc1C#N` (centres undefined) [BUNITROLOL], the Phospholipidosis result is recorded as “Negative: based on the absence of positive reported data from WMDD”. Next, `Cc1ccc(Cl)c(OCC(O)CNC(C)(C)C)c1` (centres undefined) [BUPRANOLOL]: “Negative: based on the absence of positive reported data from WMDD”. `O=C1CC2(CCCC2)CC(=O)N1CCCCN1CCN(c2ncccn2)CC1` [BUSPIRONE]: the Phospholipidosis result is on record as “Negative: confirmed by electron microscopy”.

In the case of `CCCCN(CCCC)CCNc1nc(-c2ccccc2)no1` [BUTALAMINE], the Phospholipidosis entry is given as “Negative: based on the absence of positive reported data from WMDD”. For `C=CCC1(CC(C)C)C(=O)NC(=O)NC1=O` [BUTALBITAL], the Phospholipidosis entry is “Negative: based on the absence of positive reported data from WMDD”. As for `CCCC(=O)c1ccc2c(c1)N(CCCN1CCN(C)CC1)c1ccccc1S2` [BUTAPERAZINE], the Phospholipidosis result was “Negative: based on the absence of positive reported data from WMDD”. Next, `Oc1ccc2c(c1)[C@@]13CCCC[C@@]1(O)[C@@H](C2)N(CC1CCC1)CC3` [BUTORPHANOL]: “Negative: based on the absence of positive reported data from WMDD”; `Cn1c(=O)c2c(ncn2C)n(C)c1=O` [CAFFEINE]: “Negative: confirmed by electron microscopy”; `C=C1/C(=C\C=C2/CCC[C@]3(C)[C@@H]([C@H](C)CCCC(C)(C)O)CC[C@@H]23)C[C@@H](O)C[C@@H]1O` [CALCITRIOL]: “Negative: based on the absence of positive reported data from WMDD”.

Consider `NC(=O)N1c2ccccc2C=Cc2ccccc21` [CARBAMAZEPINE], for which the Phospholipidosis entry is “Negative: confirmed by electron microscopy”. Next, `CN1CC(O)C2=C/C(=N/NC(N)=O)C(=O)C=C21` (centres undefined) [CARBAZOCHROME]: “Negative: based on the absence of positive reported data from WMDD”. Next, `CN(C)CCOC(c1ccc(Cl)cc1)c1ccccn1` (centres undefined) [CARBINOXAMINE]: “Negative: based on the absence of positive reported data from WMDD”; `N[C@@H](CSCC(=O)O)C(=O)O` [CARBOCYSTEINE]: “Negative: based on the absence of positive reported data from WMDD”. With `CCC(Br)(CC)C(=O)NC(N)=O` [CARBROMAL] the entry was “Negative: based on the absence of positive reported data from WMDD”. Consider `CCCCNC(=O)NS(=O)(=O)c1ccc(N)cc1` [CARBUTAMIDE], for which the Phospholipidosis entry is reported as “Negative: based on the absence of positive reported data from WMDD”. Next, `O=NN(CCCl)C(=O)NCCCl` [CARMUSTINE]: “Negative: based on the absence of positive reported data from WMDD”; `C=CC1=C(C(=O)O)N2C(=O)[C@@H](NC(=O)/C(=N\OCC(=O)O)c3csc(N)n3)[C@H]2SC1` [CEFIXIME]: “Negative: based on the absence of positive reported data from WMDD”; `CO[C@@]1(NC(=O)C2SC(=C(C(N)=O)C(=O)O)S2)C(=O)N2C(C(=O)O)=C(CSc3nnnn3C)CS[C@@H]21` (some centres undefined) [CEFOTETAN]: “Negative: based on the absence of positive reported data from WMDD”.

Regarding `NC(=O)c1cc[n+](CC2=C(C(=O)O)N3C(=O)[C@@H](NC(=O)[C@@H](c4ccccc4)S(=O)(=O)[O-])[C@H]3SC2)cc1` [CEFSULODIN], the Phospholipidosis entry is on record as “Negative: based on the absence of positive reported data from WMDD”.

In the case of `CC(C)(O/N=C(\C(=O)N[C@@H]1C(=O)N2C(C(=O)[O-])=C(C[n+]3ccccc3)CS[C@H]12)c1csc(N)n1)C(=O)O` [CEFTAZIDIME], the Phospholipidosis result is listed as “Negative: based on the absence of positive reported data from WMDD”. With `O=C(Cn1cnnn1)N[C@@H]1C(=O)N2C(C(=O)O)=C(CSc3nncs3)CS[C@H]12` [CEFTEZOLE] the entry was “Negative: based on the absence of positive reported data from WMDD”. Next, `CO/N=C(\C(=O)N[C@@H]1C(=O)N2C(C(=O)O)=C(CSc3nc(=O)c(=O)[nH]n3C)CS[C@H]12)c1csc(N)n1` [CEFTRIAXONE]: “Negative: based on the absence of positive reported data from WMDD”; `CC(=O)OCC1=C(C(=O)O)N2C(=O)[C@@H](NC(=O)[C@H](N)c3ccccc3)[C@H]2SC1` [CEPHALOGLYCIN]: “Negative: based on the absence of positive reported data from WMDD”; `O=C(N[C@H](CO)[C@H](O)c1ccc([N+](=O)[O-])cc1)C(Cl)Cl` [CHLORAMPHENICOL]: “Positive: weak inducer based on presence of foamy macrophages and cytoplasmic vacuolations”.

As for `CN1CCN(C(c2ccccc2)c2ccc(Cl)cc2)CC1` (centres undefined) [CHLORCYCLIZINE], the Phospholipidosis entry is listed as “Positive: strong inducer confirmed by electron microscopy”. As for `CC(=O)O[C@]1(C(C)=O)CC[C@H]2[C@@H]3C=C(Cl)C4=CC(=O)CC[C@]4(C)[C@H]3CC[C@@]21C` [CHLORMADINONE ACETATE], the Phospholipidosis result is “Negative: based on the absence of positive reported data from WMDD”. Turning to `CC(=O)[C@@]1(O)CC[C@H]2[C@@H]3C=C(Cl)C4=CC(=O)CC[C@]4(C)[C@H]3CC[C@@]21C` [CHLORMADINONE], the Phospholipidosis result was “Negative: based on the absence of positive reported data from WMDD”. With `CC(CCCN(CCCl)CCCl)Nc1ccnc2cc(Cl)ccc12` (centres undefined) [CHLOROQUINE MUSTARD] the entry was “Positive: weak inducer based on presence of foamy macrophages and cytoplasmic vacuolations”; with `CCN(CC)CCCC(C)Nc1ccnc2cc(Cl)ccc12` (centres undefined) [CHLOROQUINE], “Positive: strong inducer confirmed by electron microscopy”. Next, `NS(=O)(=O)c1cc2c(cc1Cl)N=CNS2(=O)=O` [CHLOROTHIAZIDE]: “Negative: based on the absence of positive reported data from WMDD”; `Oc1c(Cl)cc(Cl)c2cccnc12` [CHLOROXINE]: “Negative: based on the absence of positive reported data from WMDD”; `CC(C)(N)Cc1ccc(Cl)cc1` [CHLORPHENTERMINE]: “Positive: strong inducer confirmed by electron microscopy”. For the compound `CN(C)CCCN1c2ccccc2Sc2ccc(Cl)cc21` [CHLORPROMAZINE], the Phospholipidosis entry is reported as “Positive: strong inducer confirmed by electron microscopy”.
